Entries after “also recorded” stand apart in the source; their conditions may differ.
Legend:
[1] = target: T1, human HCN3 (Homo sapiens, UniProt Q9P1Z3); test: Whole cell patch clamp of HEK293 cells stably expressing human HCN3; type: cell-based; conditions: for reversibility of HCN3 current block: ZD7288: washout of at least 15 min
T1 construct: expressed in transfected cells; host or cells: HEK293 cells stably transfected with hHCN3-pcDNA3.1 Zeo
T1 sequence (Q9P1Z3 1-774): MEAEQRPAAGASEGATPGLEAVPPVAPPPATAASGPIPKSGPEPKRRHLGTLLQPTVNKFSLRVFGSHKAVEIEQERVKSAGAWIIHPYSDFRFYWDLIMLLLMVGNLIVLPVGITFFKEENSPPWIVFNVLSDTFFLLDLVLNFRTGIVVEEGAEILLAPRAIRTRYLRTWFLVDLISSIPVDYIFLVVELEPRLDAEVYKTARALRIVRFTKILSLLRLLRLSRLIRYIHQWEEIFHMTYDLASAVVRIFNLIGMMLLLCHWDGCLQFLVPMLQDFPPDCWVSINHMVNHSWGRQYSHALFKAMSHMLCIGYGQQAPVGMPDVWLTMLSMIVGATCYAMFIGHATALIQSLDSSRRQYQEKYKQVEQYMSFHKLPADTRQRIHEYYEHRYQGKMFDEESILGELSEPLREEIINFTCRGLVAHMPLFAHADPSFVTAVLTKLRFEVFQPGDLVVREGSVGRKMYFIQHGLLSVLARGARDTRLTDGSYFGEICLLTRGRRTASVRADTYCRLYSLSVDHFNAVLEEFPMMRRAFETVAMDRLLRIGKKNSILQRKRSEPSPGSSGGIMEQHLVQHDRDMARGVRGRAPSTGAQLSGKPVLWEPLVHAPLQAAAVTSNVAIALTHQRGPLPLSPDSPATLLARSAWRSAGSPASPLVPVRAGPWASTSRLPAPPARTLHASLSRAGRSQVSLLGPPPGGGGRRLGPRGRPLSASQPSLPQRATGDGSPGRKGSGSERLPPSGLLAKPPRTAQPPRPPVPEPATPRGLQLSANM

[2] = tested on: Ih in large DRG neurons; test: Whole cell patch clamp of Ih in dissociated large L5 DRG neurons of SNL and control rats; type: cell-based, rat; conditions: Cs+ 3 mM extracellular; ZD7288 50 μM
Method: Methods: Rats were prepared according to the above SNL model (L5 ligation). Sham rats were prepared identically, but without resection of the transverse process to avoid nerve trauma, and without nerve ligation. After 7 days, rats were killed by cervical dislocation and the ipsilateral L4 (no ligation) and L5 DRGs were quickly excised with fine forceps under a stereomicroscope and placed in ice cold Tyrode's containing pen/strep antibiotics.
Dissociation and culture of DRG neurons: DRGs from the L5 level of SNL, sham ligated and naive rats, and the L4 level of SNL rats were removed and maintained in ice-cold Tyrode's solution (140 mM NaCl, 4 mM KCl, 2 mM CaCl2, 1.3 mM MgCl2, 10 mM D-glucose, 10 mM HEPES, pH adjusted to 7.4 with NaOH) with additional 2 mM Ca^+2 (Tyrode's) prior to dissociation. […]
Current and voltage signals were detected and filtered at 2 kHz with an Axopatch 1D patch-clamp amplifier (Axon Instruments, Foster City, Calif.), digitally recorded with a DigiData 1200B laboratory interface (Axon Instruments), and PC compatible computer system and stored on magnetic disk for off-line analysis. […]

[3] = tested on: CFA-injected rats; test: Tactile allodynia (von Frey) in complete Freund's adjuvant (CFA) paw model of inflammatory pain; type: in vivo, rat; conditions: i.p.; ZD7288 10 mg/kg, ibuprofen 30 mg/kg, morphine 3 mg/kg, gabapentin 100 mg/kg

block of HCN3 hyperpolarization-induced inward currents ([1]; 3 mM CsCl) | SMILES | reversibility of HCN3 current block [1] | block of Ih in large DRG neurons [2] | block of HCN3 hyperpolarization-induced currents ([1]; 50 μM, n=3) | suppression of CFA-induced tactile allodynia [3]
completely blocked | [Cl-].[Cs+] [Cs^+, CsCl] | rapidly reversible | efficacious block | – | –
– | CCN(c1ccccc1)c1cc(=NC)n(C)c(C)n1.Cl [ZD7288] | did not reverse | efficacious block | 98+/−2% | suppressed allodynia; also recorded: markedly suppressed

Reference: patent US20030022812A1, “Treating pain by targeting hyperpolarization-activated, cyclic nucleotide-gated channels” (priority 2001, published 2003)
